Like-named read-outs stand apart in the source and are kept apart here. A value given as a limit tells only on which side of the number the result lay.

One test deals with JAK2. Briefly: JAK2 phosphorylation western blot assay. The test is classed as cell-based, human. The settings on record: 10 microM, HEL or K562 cells (table does not say which). The procedure: (§1) The Human Erythroleukemia cell line HEL and the human Chronic Myeloid Leukemia cell line K562 were cultured in RPM I 1640 medium containing 10% fetal bovine serum (FBS) and 50 U/ml penicillin/50 U/ml streptomycin at 37° C. in a 5% CO2 humidified atmosphere to a density of 300.000 viable cells/mL in presence of WP1066 (positive control of phosphorylation inhibition) (Verstovsek et al., 2008) or CM-363 at concentrations of 1, 5 and 10 μM. Cell culture reagents were all obtained from BioWhittaker® (Lonza, Verniers, Belgium). Cell growth and viability was determined by propidium iodide (fluorescent dye) exclusion method using the Accuchip 4× Counting Kit and the ADAM automatic cell counter (Digital-Bio, NanoEntek, Ic., Washington St, Mass., USA).As a control of unspecific phosphorylation, some cells in each experiment were exposed to vehicle (negative control of phosphorylation inhibition) (0.1% DMSO).
(§2) For total protein extraction, cells were scraped with RIPA 1× lysis buffer (25 mM Tris-HCl pH 7.6, 150 mM NaCl, 1% NP-40, 1% sodium deoxycholate, 0.1% SDS, no. 89900, Thermo Scientific, Rockford, Ill., USA) supplemented with 1× protease and 1× phosphatase inhibitor cocktails (100× Halt™ Protease Inhibitor Cocktail, no. 87786 and 100× Halt Phosphatase Inhibitor Cocktail, no. 78420, both from Thermo Scientific, Rockford, Ill., USA). An aliquot of each extract was preserved for protein quantification by bicinchoninic acid assay (Pierce® BCA Protein Assay Kit, no. 23225, Thermo Scientific, Rockford, Ill., USA).
(§3) Proteins were solubilized in sample buffer containing 0.0625 M Tris-HCl, pH 6.8, 2.3% (wt/vol) SDS, 10% (vol/vol) glycerol, 5% (vol/vol) f3-mercaptoethanol, and 0.001% (wt/vol) bromophenol blue and boiled at 95° C. for 5 min. Equal amounts (50 μg) of each sample were electrophoresed on 8-10% sodium dodecyl sulfate-polyacrylamide gel electrophoresis (SDS-PAGE) and transferred to nitrocellulose membranes (iBlot® Gel Transfer Stacks, Nitrocellulose, no. IB4010-02, Invitrogen, Barcelona, Spain) as described previously (Fernandez, L, et al., Endocrinology, 13, 1815-1824, 1998; B. Guerra et al., J. Neurochem, 91, 99-109, 2004; B. Guerra et al., J. Appl. Physiol., 102, 1786-1792, 2007; B. Guerra et al., J. Appl. Physiol., 111, 715-725, 2011). The nitrocellulose membranes were then removed from the iBlot® Dry GelTransfer Device (no. IB1001EU, Invitrogen, Barcelona, Spain) and placed in a Ponceau S staining solution (0.5% Ponceau S and 1% glacial acetic acid in water) to verify equal loading of protein in the control and treated samples. After the membranes were stained for 5 min, they were rinsed for 2 min and examined. Equal loading of protein was verified, and the membranes were rinsed for an additional 10 min and immunoscreened. Membranes were blocked with 5% blotting grade blocker nonfat dry milk in Tris Buffered Saline with 0.05% Tween 20 (TBST; blotto-blocking buffer) for at least […]) at room temperature. They were washed thrice in TBS with 0.1% Tween 20 (TBST-0.1). Next, the membranes were incubated over night at 4° C. with the appropriate anti-phospho-antibodies (described below) all diluted (1:1000) in 1% bovine serum albumin (BSA)-1% blotto in TBST (BSA-blotto blocking buffer). […] Membranes were stripped of bound antibodies by incubation in stripping buffer (Restore™ Western Blot Stripping Buffer, no. 21059, Thermo Scientific, Rockford, Ill., USA) at room temperature for 30 min with agitation. Membranes were washed for 3×10 min in TBST-0.1, blocked with blotto-blocking buffer for at least 1 h and re-probed with the corresponding anti-total kinase antibodies (described below) all diluted (1:1000) in blotto-blocking buffer. […]

Another test deals with STAT5. Briefly: STAT5 phosphorylation western blot assay. Type of test: cell-based, human. The settings on record: 10 microM, HEL or K562 cells (table does not say which). How it is done: as §1, §2, §3
The subject of test [1] is STAT5 transcription (pSPI-GLE1-luc) in HEK-GHR cells. The experiment in a line: HEK-GHR STAT5 transcription assay (luciferase reporter, rhGH stimulated). The test is classed as cell-based, human. The settings on record: compound 45 minutes before 50 nM rhGH, six hours, read-out: Activity (IC50, reduction of luciferase activity). An excerpt: Plasmids: The full-length GHR was subcloned into pcDNA1/ampicillin (Invitrogen) as described previously (Ross R J, Esposito N, Shen X Y, et al., Mol Endocrinol 1997, 11:265-73). The pSPI-GLE1 (serine protease inhibitor 2.1 GAS-like element 1)-luc reporter construct was generated by subcloning the Stat5-binding element from serine protease inhibitor gene together with a minimal thymidine kinase promoter into the pGL2 plasmid (Promega), which contains the firefly luciferase cDNA (Wood T J, Sliva D, Lobie P E, et al. J Biol Chem 1995, 270:9448-53).
Cell culture: HEK-GHR cell line was maintained in Dulbecco's Modified Eagle Medium (DMEM)/F12 supplemented with 10% fetal bovine serum (FBS) and 50 U/ml penicillin/50 U/ml streptomycin. The cells were maintained in a humidified incubator with 5% CO2 at 37° C. Cell culture reagents were obtained from PAA laboratories. The HEK-GHR cell line is a stable clone generated and kindly donated by Prof. Richard Ross (Clinical Sciences, Northern General Hospital, Sheffield, UK). Briefly, HEK-GHR cell line was generated in HEK 293 cells (human kidney embryonal cell line) by transfection with the calcium phosphate procedure of the GHR plasmid with pcDNA3/Neo (Invitrogen). Selection was made using G418 (400 ug/ml, Sigma) (Maamra M, Finidori J, Von Laue S, et al., J Biol Chem 1999, 274(21):14791-8).
Luciferase reporter assay: Transcription assays were performed in HEK-GHR. The HEK-GHR cells were co-transfected with Stat5 luciferase (pSPI-GLE1-luc) reporter vector together with a plasmid constitutively expressing beta-galactosidase by using Metafectene Pro as described by the manufacturer (Biontex Laboratories GmbH, Munich, Germany). Following transfection, HEK-GHR cells were serum-starved for 20 h. Cells were then treated with vehicle (0.1% DMSO) or the indicated compound for 45 minutes prior to the addition of 50 nM recombinant human Growth Hormone (rhGH) (Norditropin, Novo Nordisk) to the medium. Six hours following rhGH addition, cells were harvested with Passive Lysis Buffer (Promega), and levels of luciferase were measured using Luciferase Assay System as described by the manufacturer (Promega). The Galacto-Light Plus System (Applied Biosystems) was used to measure beta-galactosidase activity.
Statistical analysis. The concentration of drug that provokes 50% reduction of luciferase activity (IC50) was determined by using non-linear regression analysis and data were fitted to a log concentration vs normalized response curve in GraphPad software v5 (San Diego, Calif.).

Another test has as its system HEL cells. Briefly: HEL-based MTT cell viability assay. Set-up: species or system human. The settings on record: 48 h, read-out: Activity (IC50, reduction of cell viability). The procedure:
Cell viability was assayed by measuring the mitochondrial reduction of the tetrazolium salt 3-(4,5-methyltiazol-2yl)-2,5diphenyl-tetrazolium bromide] (MTT) (Applichen; A2231,0010) (Mosmann T. J Immunol Methods. 1983 16; 65(1-2):55-63; Chuan Y-C et al 2010. Oncogene. 29 (10), 1531-1542. Cells were seeded in 96-well plates in medium supplemented with 10% FBS (Lonza Cat. No: 14-502F), 2 mM L-Glut (Lonza Cat. No: BE17-605E) and 100 U/ml PEST (Lonza Cat. No: DE17-605E) at a cell density of 5000-20000 cells/well. Cells were seeded at a density according to their exponential growth phase. Vehicle (0.05% DMSO) or drug were added to culture medium at the indicated concentrations (10 to 0.01 microM) during 48 h. Then, MTT (0.3 mg/ml) was added to cells following by incubation for 2-4 h at 37° C. in the dark. The medium was then discarded and the formazan precipitate was solubilized by addition of 20% SDS (Sigma; L-5750) in 0.02N HCl (Panreac; 131020.1611) for 12-16 h. The optical density was measured at 595 nm with the iMark Microplate Reader (BioRad, USA). Data was expressed as percent growth above the level in controls and the results in figures were plotted as means±SEM of each test point from 3 replicates.
Statistical analysis. The concentration of drug that provokes 50% reduction of cell viability (IC50) was determined by using non-linear regression analysis and data were fitted to a log concentration vs normalized response curve in GraphPad software v5 (San Diego, Calif.).

For `CC1(C)CC(=O)C2=C(C1)NC1=C(C(=O)c3cn[nH]c3C1=O)C2c1ccccc1` (centres unmarked) [Compound 5], the “Activity (inhibition of JAK2 phosphorylation)” value in the test with JAK2 is on record as “+ (+represents an inhibition at 10 microM > 30%)”. Also, in the test with STAT5, the “Activity (inhibition of STAT5 phosphorylation)” value was “+ (+represents an inhibition at 10 microM > 50%)”. Also, the 50% inhibitory concentration (IC50) in test [1] is less than 5000 nM; with HEL cells, less than 3000 nM.
Take `O=C1CCCC2=C1C(c1cccs1)C1=C(N2)C(=O)c2ccccc2C1=O` (centres unmarked) [Compound 6, 12-(thiophen-2-yl)-3,4-dihydrobenzo[b]acridine-1,6,11(2H,5H,12H)-trione]: the “Activity (inhibition of JAK2 phosphorylation)” value in the test on JAK2 is given as “+ (+represents an inhibition at 10 microM > 30%)”. Besides, in the test on STAT5, the “Activity (inhibition of STAT5 phosphorylation)” value is reported as “++ (++represents an inhibition at 10 microM > 50%)”. Moreover, the IC50 was less than 5000 nM in test [1] (Homo sapiens) and less than 3000 nM in the test with HEL cells (Homo sapiens).
Consider `CC1(C)CC(=O)C2=C(C1)OC1=C(C(=O)c3ccccc3C1=O)C2c1cccs1` (centres unmarked) [Compound 7, 3,3-dimethyl-12-(thiophen-2-yl)-3,4-dihydro-1H-benzo[b]xanthene-1,6,11(2H,12H)-trione], for which the “Activity (inhibition of JAK2 phosphorylation)” value in the test on JAK2 is on record as “+++ (+++represents an inhibition at 10 microM > 75%)”. For the same molecule, the “Activity (inhibition of STAT5 phosphorylation)” value in the test with STAT5 is reported as “+++ (+++represents an inhibition at 10 microM > 75%)”. In addition, the half-inhibitory concentration (IC50) in test [1] (Homo sapiens) is less than 1000 nM; in the test with HEL cells (Homo sapiens), less than 10000 nM.
Turning to `CC1(C)CC(=O)C2=C(C1)NC1=C(C(=O)c3ncncc3C1=O)C2c1ccccc1` (centres unmarked) [Compound 8], the “Activity (inhibition of JAK2 phosphorylation)” value in the test with JAK2 is “+++ (+++represents an inhibition at 10 microM > 75%)”. Further, the “Activity (inhibition of STAT5 phosphorylation)” value in the test on STAT5 is on record as “+ (+represents an inhibition at 10 microM > 50%)”. In addition, the IC50 was less than 5000 nM in test [1] and less than 3000 nM in the test with HEL cells.
As for `O=C1CCCC2=C1C(c1ccc(Br)cc1)C1=C(O2)C(=O)c2ccccc2C1=O` (centres unmarked) [Compound 10], the “Activity (inhibition of JAK2 phosphorylation)” value in the test with JAK2 is on record as “++ (++represents an inhibition at 10 microM > 50%)”. The “Activity (inhibition of STAT5 phosphorylation)” value with STAT5 is recorded as “+ (+represents an inhibition at 10 microM > 50%)”. Besides, the IC50 in test [1] is less than 1000 nM; in the test on HEL cells, less than 3000 nM.
With `O=C1CCCC2=C1C(c1ccccn1)C1=C(O2)C(=O)c2ccccc2C1=O` (centres unmarked) [Compound 11, 12-(pyridin-2-yl)-3,4-dihydro-1H-benzo[b]xanthene-1,6,11(2H,12H)-trione], the “Activity (inhibition of STAT5 phosphorylation)” value in the test with STAT5 is recorded as “+ (+represents an inhibition at 10 microM > 50%)”. The concentration for half-maximal inhibition (IC50) is less than 1000 nM in test [1] (Homo sapiens) and less than 10000 nM with HEL cells (Homo sapiens).
Take `CC1(C)CC(=O)C2=C(C1)OC1=C(C(=O)c3ccccc3C1=O)C2c1ccccn1` (centres unmarked) [Compound 12]: the “Activity (inhibition of JAK2 phosphorylation)” value with JAK2 was “++ (++represents an inhibition at 10 microM > 50%)”. Moreover, the “Activity (inhibition of STAT5 phosphorylation)” value with STAT5 is “++ (++represents an inhibition at 10 microM > 50%)”. For the same molecule, the half-inhibitory concentration (IC50) in test [1] was less than 1000 nM; in the test on HEL cells, less than 3000 nM.
Turning to `COc1ccc(C2C3=C(CCCC3=O)OC3=C2C(=O)c2ccccc2C3=O)cc1OC` (centres unmarked) [Compound 15], in the test on JAK2, the “Activity (inhibition of JAK2 phosphorylation)” value is recorded as “++ (++represents an inhibition at 10 microM > 50%)”. Further, the “Activity (inhibition of STAT5 phosphorylation)” value in the test with STAT5 was “++ (++represents an inhibition at 10 microM > 50%)”. Further, the 50% inhibitory concentration (IC50) in test [1] is less than 10000 nM; in the test with HEL cells it was less than 1000 nM.
`O=C1CCCC2=C1C(c1cccnc1)C1=C(N2)C(=O)c2ccccc2C1=O` (centres unmarked) [Compound 17]: the “Activity (inhibition of JAK2 phosphorylation)” value in the test with JAK2 is on record as “+++ (+++represents an inhibition at 10 microM > 75%)”. Moreover, the “Activity (inhibition of STAT5 phosphorylation)” value with STAT5 was “+ (+represents an inhibition at 10 microM > 50%)”. Also, the IC50 in test [1] is less than 5000 nM; in the test on HEL cells, less than 3000 nM.
Turning to `CC1(C)CC(=O)C2=C(C1)NC1=C(C(=O)c3ccccc3C1=O)C2c1cnc(Cl)nc1` (centres unmarked) [Compound 19], in the test on JAK2, the “Activity (inhibition of JAK2 phosphorylation)” value is “++ (++represents an inhibition at 10 microM > 50%)”. Further, the 50% inhibitory concentration (IC50) is less than 5000 nM in test [1] and less than 3000 nM in the test on HEL cells.

The record behind these values is patent US20150175585A1, “FUSED QUINONIC COMPOUNDS” (CENTRO ATLANTICO DEL MEDICAMENTO S.A (CEAMED, S.A.), priority 2012, published 2015).
